One assay concerns ECHCO. The assay can be described thus: Example V post-emergence field trials in direct-seeded rice. Format: in vivo, Echinochloa colona. The settings on record: foliar, field trial Tolima, Colombia. Here is the method:
Multiple field trials were conducted under commercial grower field conditions in Tolima, Colombia; Thessaloniki, Greece; Bianze and Copiano, Italy; and Humphrey, Ark., USA. Trials sites were located in commercially grown fields of direct-seeded rice (Oryza sativa) using standard herbicide small plot research methodology. Plots varied from 2 to 3 meter (m)×5 to 8 m (width×length) with 4 replicates per treatment. The rice crop was grown using normal cultural practices for fertilization, seeding, watering, flooding and maintenance to ensure good growth of the crop and the weeds.
All treatments in the field trials were applied using a backpack compressed air/gas sprayer with flat fan nozzles (80° or 110°) calibrated to apply 187 to 300 L/ha spray volume at approximately 200-400 kPa nozzle pressure. Commercially available products of cyhalofop-butyl (Clincher 180EC, Clincher 200EC, and Clincher SF (285 gr ai/L EC)) were mixed in water at appropriate formulated product rates to achieve the desired rates based on a unit area of application (hectare) to achieve the desired rates as shown. Treatments were rate at 19 to 58 days after application (DAA) as compared to the untreated control plants. Visual weed control was scored on a scale of 0 to 100 percent where 0 corresponds to no injury and 100 corresponds to complete kill. […]

The subject of another assay is CYPES. Description: Example I postemergence foliar-applied, greenhouse, direct seeded rice weeds. It counts as in vivo, Cyperus esculentus L. An excerpt: Seeds or nutlets of the desired test plant species were planted in a soil matrix prepared by mixing a loam or sandy loam soil (e.g., 28.6 percent silt, 18.8 percent clay, and 52.6 percent sand, with a pH of about 5.8 and an organic matter content of about 1.8 percent) and calcareous grit in an 80 to 20 ratio. The soil matrix was contained in plastic pots with a volume of 1 quart and a surface area of 83.6 square centimeters (cm^2). When required to ensure good germination and healthy plants, a fungicide treatment and/or other chemical or physical treatment was applied. The plants were grown for 8-22 days in a greenhouse with an approximate 14 hr. photoperiod which was maintained at about 29° C. during the day and 26° C. during the night. Nutrients (Peters Excel® 15-5-15 5-Ca 2-Mg and iron chelate) were applied in the irrigation solution as needed and water was added on a regular basis. Supplemental lighting was provided with overhead metal halide 1000-Watt lamps as necessary. The plants were employed for testing when they reached the first through fourth true leaf stage.
Treatments consisted of the acid or esters of 4-amino-3-chloro-5-fluoro-6-(4-chloro-2-fluoro-3-methoxy-phenyl)pyridine-2-carboxylic acid (Compound A), each formulated as an SC (suspension concentrate), and various herbicidal components alone and in combination.
Other herbicidal components were applied on an acid equivalent (ae) or active ingredient (ai) basis and included acetyl coA carboxylase (ACCase)-inhibiting herbicides (cyclohexanedione and aryloxyphenoxypropionate chemical classes) cyhalofop-butyl formulated as Clincher® SF (285 gr ai/L EC), diclofop-methyl formulated as Hoelon® 3EC, fenoxaprop-p-ethyl+isoxadifen-ethyl formulated as RiceStar® HT (0.58 lb./gal EC), fenoxaprop-p-ethyl+mefenpyr diethyl formulated as Puma® IEC, metamifop formulated as Metamifop EC, haloxyfop-methyl formulated as Gallant Super®, fluazifop-p-butyl formulated as Fusilade® DX, quizalofop-p-ethyl formulated as Assure® II, profoxydim formulated as Aura® 20EC, clethodim applied as Intensity®, sethoxydim formulated as Poast®, and tralkoxydim formulated as Achieve®.
Treatment requirements were calculated based upon the rates being tested, the concentration of active ingredient or acid equivalent in the formulation, and a 12 mL application volume at a rate of 187 L/ha.
For treatments comprised of formulated compounds, measured amounts of compounds were placed individually in 25 mL glass vials and diluted in a volume of 1.25% (v/v) Agri-Dex® crop oil concentrated to obtain 12× stock solutions. […] Application solutions were prepared by adding an appropriate amount of each stock solution (e.g., 1 mL) and diluted to the appropriate final concentrations with the addition of 10 mL of an aqueous mixture of 1.25% (v/v) crop oil concentrate so that the final spray solutions contained 1.25+/−0.05% (v/v) crop oil concentrate.
All stock solutions and applications solutions were visually inspected for compound compatibility prior to application. Spray solutions were applied to the plant material with an overhead Mandel track sprayer equipped with a 8002E nozzles calibrated to deliver 187 L/ha over an application area of 0.503 m^2 at a spray height of 18 to 20 inches (46 to 50 cm) above average plant canopy height. Control plants were sprayed in the same manner with the solvent blank.
The treated plants and control plants were placed in a greenhouse as described above and watered by sub-irrigation to prevent wash-off of the test compounds. After approximately 3 weeks, the condition of the test plants as compared with that of the untreated plants was determined visually and scored on a scale of 0 to 100 percent where 0 corresponds to no injury or growth inhibition and 100 corresponds to complete kill. […]

Another assay deals with SCPJU. The description is as above. It counts as in vivo, Schoenoplectus juncoides (Roxb.) Palla. In outline:
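Read-out is visual percent injury or growth inhibition (0 = none, 100 = complete kill) versus untreated plants about 3 weeks after treatment, with Colby's equation giving expected activity of two-way mixtures. Applications used a track sprayer at 187 L/ha in 1.25% (v/v) crop oil concentrate. Plants were at the first to fourth true leaf stage.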

Values joined by “and” are separate entries in the source; they are usually repeats but may differ in a detail not shown here. Equal values may be shown once.

With `CCCCOC(=O)[C@@H](C)Oc1ccc(Oc2ccc(C#N)cc2F)cc1` [Cyhalofop-butyl, butyl(2R)-2-[4-(4-cyano-2-fluorophenoxy)phenoxy]propanoate, reference compound], in the assay on ECHCO (280 gai/ha), the “Visual Weed Control (%) - 19 DAA ECHCO Obs” value is on record as 0%.
On to `COc1c(Cl)ccc(-c2nc(C(=O)O)c(Cl)c(N)c2F)c1F` [Compound A Acid, 4-amino-3-chloro-6-(4-chloro-2-fluoro-3-methoxyphenyl)-5-fluoropyridine-2-carboxylic acid], for which, in the assay with CYPES (4.38 gae/ha), the “Visual Weed Control (%) - 20 DAA CYPES Obs” value was determined as 30% and the “Visual Weed Control (%) - 22 DAA CYPES Obs” value was 50%. Also, in the assay with CYPES (8.75 gae/ha), the “Visual Weed Control (%) - 20 DAA CYPES Obs” value is reported as 70% and the “Visual Weed Control (%) - 22 DAA CYPES Obs” value came out at 75%. For the same compound, in the assay on SCPJU (4.38 gae/ha), the “Visual Weed Control (%) - 20 DAA SCPJU Obs” value was 60% and 70%; the “Visual Weed Control (%) - 22 DAA SCPJU Obs” value is recorded as 60%. For the same compound, the “Visual Weed Control (%) - 20 DAA SCPJU Obs” value in the assay on SCPJU (8.75 gae/ha) is recorded as 95%.
With `COc1c(Cl)ccc(-c2nc(C(=O)OCc3ccccc3)c(Cl)c(N)c2F)c1F` [Compound A Benzyl Ester, benzyl ester of 4-amino-3-chloro-5-fluoro-6-(4-chloro-2-fluoro-3-methoxy-phenyl)pyridine-2-carboxylic acid], the “Visual Weed Control (%) - 20 DAA CYPES Obs” value worked out at 70% with CYPES (4.38 gae/ha); 0% in the assay with CYPES (8 gae/ha); 80% with CYPES (8.75 gae/ha); 75% with CYPES (16 gae/ha); 95% in the assay on CYPES (17.5 gae/ha). Also, the “Visual Weed Control (%) - 20 DAA SCPJU Obs” value in the assay with SCPJU (4.38 gae/ha) is 30%; with SCPJU (8 gae/ha), 70%; in the assay with SCPJU (8.75 gae/ha) it was 60%; in the assay on SCPJU (16 gae/ha) it was 85%. Besides, the “Visual Weed Control (%) - 21 DAA SCPJU Obs” value in the assay on SCPJU (8 gae/ha) is reported as 85%. Besides, the “Visual Weed Control (%) - 19 DAA ECHCO Obs” value with ECHCO (12 gae/ha) is 76%.

For the origin of these results see patent US9232796B2, “Herbicidal compositions comprising 4-amino-3-chloro-5-fluoro-6-(4-chloro-2-fluoro-3-methoxyphenyl) pyridine-2-carboxylic acid or a derivative thereof and acetyl-CoA carboxylase (ACCase) inhibitors” (DOW AGROSCIENCES LLC, priority 2012, dated 2016).
